# Assay results taken from US10077238B2, “Small molecule LFA-1 inhibitors” (ALLOCYTE PHARMACEUTICALS AG, priority 2014, dated 2018).
# Key:
# Format in all cases: cell-based
# Jurkat cells [1] = experiment: Toxilight BioAssay (adenylate kinase release), Jurkat; details: 24 hours exposure, mean ± SD of triplicates
# From the text: (§1) Assessment of Cellular Toxicity (Toxilight Assay and CellTiter-Glo Assay)
# (§2) Purpose. To detect potential cellular toxicity of present LFA-1 inhibitors two complementary assays were chosen: the Toxilight™ BioAssay (Lonza) and the CellTiter-Glo™ Luminescent Cell Viability Assay (Promega). The Toxilight assay measures cell death via the release of the cytosolic enzyme adenylate kinase into the supernatant of treated cell cultures. The CellTiter-Glo assay directly determines the key energy metabolite ATP, resulting in sensitive quantitation of the number of healthy cells in culture.
# (§3) Both assays were used with two different cell lines: the Jurkat and HepG2 cell lines. Jurkat, a human lymphocytic leukemia cell line, was utilized to assess the effect of the compounds on LFA-1 expressing cells. HepG2, a human hepatocyte cell line, was used to assess the response of liver cells where drugs are metabolized. Both assays included the use of untreated cells, and cells treated with amiodarone or 0.5% Triton X 100 as cytotoxic controls.
# (§4) Jurkat cells and HepG2 cells were cultured in RPMI 1640 containing 10% FCS or DMEM containing 10% FCS under standard conditions (recommended by ATCC). Compounds were dissolved in DMSO and serially pre-diluted in DMSO (100%) to avoid precipitation of the compounds, before final dilution steps in culture medium containing FCS were performed. The final DMSO concentration was kept constant at 0.5% in all samples.
# (§5) The test compounds and controls were exposed to the cells for 24 hours respectively at 37° C. Then adenylate kinase activity was quantified in the supernatant of the cell cultures using the ToxiLight™ reagent. In an independent set of experiments ATP content was measured by adding the CellTiter-Glo™ reagent according to manufacturer's instructions.
# HepG2 cells [2] = experiment: CellTiter-Glo Luminescent Cell Viability Assay (ATP), HepG2; details: 24 hours exposure, mean ± SD of triplicates
# From the text: as §1, §2, §3, §4, §5
# HepG2 cells [3] = experiment: Toxilight BioAssay (adenylate kinase release), HepG2; details: 24 hours exposure, mean ± SD of triplicates
# From the text: as §1, §2, §3, §4, §5
# VLA-4 = biological target: T1, VLA-4 (Homo sapiens, UniProt P05556+P13612); experiment: V well cell adhesion assay, VLA-4-mediated Jurkat cell binding to VCAM-1 (VLA-4 adhesion); details: Jurkat cells on VCAM-1 Fc; single experiments run in triplicates
# T1 construct: endogenous in cells; host or cells: Jurkat cells
# T1 sequence (P13612 34-1032): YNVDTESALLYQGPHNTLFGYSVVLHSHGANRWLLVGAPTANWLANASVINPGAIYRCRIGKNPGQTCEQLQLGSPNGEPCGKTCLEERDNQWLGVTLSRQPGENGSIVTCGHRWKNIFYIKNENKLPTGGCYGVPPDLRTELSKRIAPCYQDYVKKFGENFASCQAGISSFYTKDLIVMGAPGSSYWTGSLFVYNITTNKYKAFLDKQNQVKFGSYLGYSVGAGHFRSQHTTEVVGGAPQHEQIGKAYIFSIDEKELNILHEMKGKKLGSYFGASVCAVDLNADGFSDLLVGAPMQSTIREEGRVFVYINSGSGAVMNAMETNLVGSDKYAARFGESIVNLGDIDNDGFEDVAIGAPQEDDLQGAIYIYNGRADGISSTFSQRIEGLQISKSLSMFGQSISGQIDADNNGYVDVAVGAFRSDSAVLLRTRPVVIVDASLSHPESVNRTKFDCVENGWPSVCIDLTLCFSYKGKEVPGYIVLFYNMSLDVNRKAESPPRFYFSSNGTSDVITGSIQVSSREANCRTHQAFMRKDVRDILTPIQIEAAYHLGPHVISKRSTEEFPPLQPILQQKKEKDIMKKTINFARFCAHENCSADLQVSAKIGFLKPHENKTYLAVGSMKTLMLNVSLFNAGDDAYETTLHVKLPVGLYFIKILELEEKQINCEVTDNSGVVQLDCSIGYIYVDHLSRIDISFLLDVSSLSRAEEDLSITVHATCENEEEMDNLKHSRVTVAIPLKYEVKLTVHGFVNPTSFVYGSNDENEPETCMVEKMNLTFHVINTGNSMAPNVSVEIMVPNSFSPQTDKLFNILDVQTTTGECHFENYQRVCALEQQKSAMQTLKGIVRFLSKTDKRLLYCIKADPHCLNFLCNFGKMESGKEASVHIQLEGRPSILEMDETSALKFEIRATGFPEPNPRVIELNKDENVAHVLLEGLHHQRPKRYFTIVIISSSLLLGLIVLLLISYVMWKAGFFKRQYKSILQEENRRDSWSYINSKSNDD
# T1 sequence (P05556 21-798): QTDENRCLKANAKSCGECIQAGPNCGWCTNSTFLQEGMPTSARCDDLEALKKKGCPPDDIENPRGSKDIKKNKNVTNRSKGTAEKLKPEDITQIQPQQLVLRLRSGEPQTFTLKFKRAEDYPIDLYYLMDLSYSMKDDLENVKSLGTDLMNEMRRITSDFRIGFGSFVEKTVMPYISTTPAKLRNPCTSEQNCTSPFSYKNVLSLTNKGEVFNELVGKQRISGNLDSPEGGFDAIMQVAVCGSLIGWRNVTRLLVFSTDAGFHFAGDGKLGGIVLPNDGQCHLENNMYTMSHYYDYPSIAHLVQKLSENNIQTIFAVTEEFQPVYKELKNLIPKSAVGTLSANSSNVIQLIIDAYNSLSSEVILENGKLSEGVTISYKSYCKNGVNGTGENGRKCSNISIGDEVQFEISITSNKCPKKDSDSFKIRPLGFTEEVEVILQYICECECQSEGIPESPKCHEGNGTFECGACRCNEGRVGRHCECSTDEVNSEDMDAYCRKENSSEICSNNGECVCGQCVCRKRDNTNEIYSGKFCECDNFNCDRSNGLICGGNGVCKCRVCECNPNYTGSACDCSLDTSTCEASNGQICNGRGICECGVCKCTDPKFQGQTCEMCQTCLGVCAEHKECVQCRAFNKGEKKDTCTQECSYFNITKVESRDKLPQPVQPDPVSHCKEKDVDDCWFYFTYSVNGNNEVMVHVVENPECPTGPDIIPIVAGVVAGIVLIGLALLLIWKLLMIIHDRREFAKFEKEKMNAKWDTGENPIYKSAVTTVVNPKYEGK
# Procedure: Cell-Based Assay to Determine the Selectivity of the Compounds Over the Integrin VLA-4 (VLA-4 Adhesion)
# Purpose of the Assay: This V well cell adhesion assay measures the effect of the compounds on VLA-4-mediated Jurkat cell binding to VCAM-1. The assay has been successfully used in the past to determine the selectivity of small molecule LFA-1 inhibitors over the integrin VLA-4.
# Experimental Protocol: The adhesion assay was performed as described above for the Jurkat/ICAM-1 V well adhesion assay. Briefly, plates were coated with anti-human IgG mAb and blocked with BSA as described above. Instead of ICAM-1, recombinant human VCAM-1/CD106 Fc chimera (R&D Systems) was coated onto the plates (0.3 μg/mL in coating buffer). After incubation, labelled Jurkat cells in binding buffer were transferred to the wells (20,000 cells/well). The plates were immediately centrifuged at 1000 rpm for 4 min at rt (Centrifuge Eppendorf 5810 R) setting the brakeoff. Non-adherent cells were quantified in the tip of the Vbottom well using a fluorescence reader. IC50 values of the compounds were calculated using the software GraphPad Prism 6.
# LFA-1 [4] = biological target: T2, LFA-1 (Homo sapiens, UniProt P20701); experiment: V well cell adhesion assay, LFA-1-mediated Jurkat cell binding to ICAM-1 (LFA-1 adhesion); details: Jurkat cells on ICAM-1/Fc; mean ±SD of ≥3 independent experiments in triplicates or single experiments in triplicates
# T2 construct: endogenous in cells; host or cells: Jurkat cells
# T2 sequence (P20701 26-1170): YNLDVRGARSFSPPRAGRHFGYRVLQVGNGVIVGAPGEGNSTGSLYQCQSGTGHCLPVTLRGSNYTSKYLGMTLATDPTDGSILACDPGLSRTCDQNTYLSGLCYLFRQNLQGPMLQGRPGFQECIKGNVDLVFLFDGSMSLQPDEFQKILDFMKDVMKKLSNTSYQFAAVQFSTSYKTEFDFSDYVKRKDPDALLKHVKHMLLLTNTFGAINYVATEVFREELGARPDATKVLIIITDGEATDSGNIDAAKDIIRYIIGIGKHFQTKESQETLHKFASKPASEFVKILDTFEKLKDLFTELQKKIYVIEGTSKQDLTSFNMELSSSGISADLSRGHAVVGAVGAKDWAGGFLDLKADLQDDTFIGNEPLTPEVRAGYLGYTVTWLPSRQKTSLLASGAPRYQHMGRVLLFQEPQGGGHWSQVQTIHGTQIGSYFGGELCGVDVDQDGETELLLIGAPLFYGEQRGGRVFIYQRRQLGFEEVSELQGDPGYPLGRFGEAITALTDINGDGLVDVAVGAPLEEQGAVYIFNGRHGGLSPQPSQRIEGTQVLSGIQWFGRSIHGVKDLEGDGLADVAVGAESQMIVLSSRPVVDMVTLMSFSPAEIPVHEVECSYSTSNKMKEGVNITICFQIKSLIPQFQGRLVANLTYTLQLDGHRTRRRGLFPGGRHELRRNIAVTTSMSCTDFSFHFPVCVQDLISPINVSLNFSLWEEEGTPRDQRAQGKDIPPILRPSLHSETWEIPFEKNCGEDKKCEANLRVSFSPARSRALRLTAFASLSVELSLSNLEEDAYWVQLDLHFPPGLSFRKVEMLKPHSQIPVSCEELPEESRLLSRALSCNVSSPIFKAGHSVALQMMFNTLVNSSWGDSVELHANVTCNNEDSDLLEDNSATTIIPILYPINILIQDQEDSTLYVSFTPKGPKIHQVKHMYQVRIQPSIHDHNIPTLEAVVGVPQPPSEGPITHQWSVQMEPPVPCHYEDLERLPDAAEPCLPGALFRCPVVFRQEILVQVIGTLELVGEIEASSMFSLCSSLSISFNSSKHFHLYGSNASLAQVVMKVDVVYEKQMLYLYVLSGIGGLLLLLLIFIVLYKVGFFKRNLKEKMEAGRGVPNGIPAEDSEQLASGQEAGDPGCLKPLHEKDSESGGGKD
# T2 sequence (P05107 23-769 partner): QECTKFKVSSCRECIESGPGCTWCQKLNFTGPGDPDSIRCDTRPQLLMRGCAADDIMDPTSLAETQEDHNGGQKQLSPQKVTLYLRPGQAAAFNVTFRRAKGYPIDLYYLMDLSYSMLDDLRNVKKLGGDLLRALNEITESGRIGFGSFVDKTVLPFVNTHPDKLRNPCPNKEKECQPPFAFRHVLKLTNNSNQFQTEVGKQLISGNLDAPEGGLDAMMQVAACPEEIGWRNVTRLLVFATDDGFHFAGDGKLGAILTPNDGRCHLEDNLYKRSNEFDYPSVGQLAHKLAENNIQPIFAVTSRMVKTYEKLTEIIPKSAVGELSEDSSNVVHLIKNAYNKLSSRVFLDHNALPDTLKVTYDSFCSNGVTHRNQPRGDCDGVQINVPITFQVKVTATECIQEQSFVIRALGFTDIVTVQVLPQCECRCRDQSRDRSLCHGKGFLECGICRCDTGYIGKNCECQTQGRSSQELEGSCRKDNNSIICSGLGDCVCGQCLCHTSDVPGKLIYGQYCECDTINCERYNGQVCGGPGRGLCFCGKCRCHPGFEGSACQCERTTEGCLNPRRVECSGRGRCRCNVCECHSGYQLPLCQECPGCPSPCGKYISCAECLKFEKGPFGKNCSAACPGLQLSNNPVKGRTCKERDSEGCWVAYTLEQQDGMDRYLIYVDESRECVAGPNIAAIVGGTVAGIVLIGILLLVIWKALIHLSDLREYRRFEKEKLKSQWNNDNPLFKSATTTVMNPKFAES
# Procedure: Cell-Based Assay to Determine the Effect of the Compounds on LFA-1-Mediated Cell Adhesion (LFA-1 Adhesion)
# Purpose of the Assay: The V well cell adhesion assay measures the ability of the compounds to interfere with LFA-1-mediated binding to ICAM-1 at cellular level. The assay has been successfully used in the past to identify and characterize small molecules LFA-1 inhibitors.
# Experimental Protocol: The adhesion assay was performed in Vbottom 96-well plates as described previously [Weitz-Schmidt 2012]. Briefly, the plates were coated with anti-human IgG mAb diluted in coating buffer (20 mM Tris containing 150 mM NaCl, pH 8) (1 μg/mL) and incubated overnight at 4° C. The plates were flicked out and blocked with blocking buffer (50 mM Tris base, 150 mM NaCl, 1.5% BSA (w/v), pH 7.2) at 37° C. for 90 min. Then human recombinant ICAM-1/Fc (R&D Systems) diluted in coating buffer (0.3 μg/mL) was added to each well. The plates were incubated at 37° C. for 90 min and washed with binding buffer (50 mM Tris base, 150 mM NaCl, 1.5% BSA (w/v), 2 mM MgCl2, 2 mM MnCl2, 5 mM D-glucose monohydrate, pH 7.2-7.4) to remove unbound ligand.
# Jurkat cells were cultured under standard conditions as recommended by the American Type Culture collection (ATCC). The cells were fluorescently labelled with BCECF-AM in PBS (1 μg/mL) at 37° C. for 20 min in the dark, centrifuged and washed with PBS. The test compounds were dissolved in DMSO at 10 mM and serially pre-diluted in DMSO (100%) to avoid precipitation, before performing final dilution steps in binding buffer.
# The labelled Jurkat cells were re-suspended in binding buffer and test compounds or solvent control were added. The DMSO concentration was kept constant in all samples (1% DMSO as final assay concentration). After 40 min at 37° C. (LFA-1 activation and compound pre-incubation step) the cell suspension (3×10^5 cells/mL in binding buffer) was pipetted up and down and transferred to the ligand-coated microtiter V well plates (30 000 cells/well). The plates were centrifuged for 4 min at room temperature (rt) at 1000 rpm (Centrifuge Eppendorf 5810 R), setting the brake off Non-adherent cells that accumulated in the center of the Vbottom were quantified using a fluorescence reader with the filter sets allowing excitation at 485 nm and quantification of emission at 535 nm. The determination of the half maximal inhibitory concentration (IC50) of the compounds was calculated using the software GraphPad Prism 6.
# Jurkat cells [5] = experiment: CellTiter-Glo Luminescent Cell Viability Assay (ATP), Jurkat; details: 24 hours exposure, mean ± SD of triplicates
# From the text: as §1, §2, §3, §4, §5
# LFA-1 [6] = biological target: T2, LFA-1; experiment: Flow cytometry, mAb MEM148 binding to LFA-1 expressed on leukocytes; details: solvent ctrl = 1, Jurkat cells or PBMCs
# Procedure: Quantification of mAb MEM148 Binding to LFA-1 (mAb MEM148 Binding)
# Purpose of the Assay: This flow cytometry assay determines the effect of the compounds on the binding of the conformation-sensitive anti-LFA-1 mAb MEM148 to LFA-1 expressed on leukocytes. The mAb MEM148 detects an epitope which becomes exposed in activated LFA-1 [Yuki 2012]
# Experimental Protocol: The assay is performed as the flow cytometry assay described above.
# Briefly, Jurkat cells or PBMCs in assay buffer (50 mM Tris, 150 mM NaCl, 1 mM CaCl2, 1 mM MgCl2, 5 mM Glucose, 1.5% BSA, pH 7.3) were pre-incubated with the compounds and appropriate positive controls for 40 min at rt. After incubation, the cell-suspension was centrifuged, the supernatant discarded and PE-labelled anti-LFA-1 mAb MEM148 was directly added to the pellets. After pipetting up and down, the tubes were incubated for 30 min. at 37° C. in the dark. The pellet was washed twice with 1 mL PBS and resuspended in PBS. Antibody binding was quantified by flow cytometry. Mean fluorescence intensities (MFI) were calculated using the CellQuest software.
# LFA-1 [7] = biological target: T2, LFA-1; experiment: Flow cytometry, mAb R7.1 binding to LFA-1 expressed on leukocytes; details: Jurkat cells or human PBMCs, values of independent experiments; for inhibition at 1 µM: Jurkat
# Procedure: Measurement of mAb R7.1 binding to LFA-1 (mAb R7.1 binding)
# Purpose of the Assay: This flow cytometry assay determines the effect of the compounds on the binding of the anti-LFA-1 mAb R7.1 to LFA-1 expressed on leukocytes.
# Experimental Protocol: Jurkat cells or human peripheral blood mononuclear cells (PBMCs) were resuspended in assay buffer (50 mM Tris, 150 mM NaCl, 2 mM MgCl2, 1.5% BSA and 5 mM D-glucose monohydrate, pH7.2) at 2×10^6 cells/mL and 500 μL of this cell suspension (1×10^6 cells) were transferred into polypropylene tubes containing the test compounds diluted in 500 μL assay buffer. The samples were pre-incubated at 37° C. for 40 min, and centrifuged. The supernatants were removed and FITC-labelled anti-LFA-1 mAb R7.1 and PE-labeled anti-LFA-1 mAb TS2/4 (mAb TS2/4 is not affected by alpha I allosteric inhibitor binding to LFA-1) or appropriate isotype controls were added directly to each cell pellet. The pellets were then gently pipetted up and down and incubated on ice for 30 min in the dark. After the incubation step the cells were washed twice with PBS and resuspended in PBS.
# Antibody binding was analyzed by flow cytometry. Mean fluorescence intensities (MFI) were calculated using the CellQuest software. The values are expressed as % of solvent control (solvent control=100% binding).
Compound,Toxilight Jurkat % viability at 10 μM (Jurkat cells [1]) [%],CellTiter-Glo HepG2 % viability at 10 μM (HepG2 cells [2]) [%],Toxilight HepG2 % viability at 10 μM (HepG2 cells [3]) [%],IC50 (VLA-4) [µM],IC50 (LFA-1 [4]) [µM],CellTiter-Glo Jurkat % viability at 10 μM (Jurkat cells [5]) [%],"mAb MEM148 binding, binding relative to solvent ctrl at 10 μM (LFA-1 [6])",mAb R7.1 binding % inhibition at 1 μM (LFA-1 [7]) [%],inhibition at 1 µM (LFA-1 [7]) [%]
"C[C@]12C(=O)N(c3cc(Cl)cc(Cl)c3)C(=O)[C@H]1C2(c1ccccc1)c1ccccc1 (racemic) [4b (racemate), rac-(1S,5S)-3-(3,5-Dichlorophenyl)-1-methyl-6,6-diphenyl-3-azabicyclo[3.1.0]hexane-2,4-dione]",101 ± 9.8,98.4 ± 3.8,124 ± 29.7,> 10,1.87 ± 1.27,96.8 ± 4.7,0.974,80.0,76.9
"C[C@]12C(=O)N(c3cc(Cl)cc(Cl)c3)C(=O)[C@H]1[C@H]2c1ccc(Br)cc1 (racemic) [4′f (racemate), rac-(1R,5S,6S)-6-(4-Bromophenyl)-3-(3,5-dichloro-phenyl)-1-methyl-3-azabicyclo[3.1.0]hexane-2,4-dione]",99.9 ± 24.2,101.6 ± 4.0,115.6 ± 35.1,> 10,0.715 ± 0.618,115.0 ± 4.8,0.96,91.7,85.2
"C[C@]12C(=O)N(c3cc(Cl)cc(Cl)c3)C(=O)[C@H]1[C@H]2c1ccc(OC(F)(F)F)cc1 (racemic) [4′g (racemate), rac-(1R,5S,6S)-3-(3,5-Dichlorophenyl)-1-methyl-6-[4-(trifluoromethoxy)phenyl]-3-azabicyclo[3.1.0]hexane-2,4-dione]",116 ± 16.2,102.6 ± 4.5,99.8 ± 26.5,> 10,0.55 ± 0.206,111.4 ± 7.4,0.89,94.1,93.6
